In patent publication US20250304559A1, “Ether-Linked Antiviral Compounds” (Pfizer Inc., priority 2021, published 2025) one finds EC50 and Ki data, which are given here for seven molecules.

What is called EC50 is the concentration at which the effect is half-maximal. Usually Ki stands for a dissociation constant, usually derived from enzyme kinetics or from competition with a known ligand.

Assay [1] concerns SARS-CoV-2 (USA_WA1/2020). Put plainly: Antiviral Activity from SARS-CoV-2 Infection (cytopathic effect, Cell Titer-Glo). Type of assay: cell-based. The note with it: Severe acute respiratory syndrome coronavirus 2, Vero C1008, 72 h, VeroE6 cells enriched for hACE2, MOI 0.002, 3-day incubation; tested alone or with P-gp inhibitor CP-100356 2 μM (table does not say which); read-out: Geometric Mean EC50. For orientation: Damage to the host cells serves as the signal in cytopathic effect assays.

The target of assay [2] is T1, SARS-CoV-2 3CL protease (Severe acute respiratory syndrome coronavirus 2, UniProt P0DTD1).
T1 construct: measures the activity of full-length SARS-CoV-2 3CL protease
Put plainly: SARS-CoV-2 Coronavirus 3C Protease FRET Assay. In kind it is biochemical. As to conditions: Examples 14-78 and 114 (second head of Table 2); Morrison equation fit, 15 nM enzyme, 25 μM peptide substrate; read-out: Geometric Mean Ki (nM) IC50.

`COC(=O)N[C@H](C(=O)N1C[C@H]2[C@@H]([C@H]1C(=O)N[C@@H](C[C@@H]1CCNC1=O)C(=O)COc1ccccc1)C2(C)C)C(C)(C)C` [Example 30, methyl{(2S)-1-[(1R,2S,5S)-6,6-dimethyl-2-({(2S)-3-oxo-1-[(3S)-2-oxopyrrolidin-3-yl]-4-phenoxybutan-2-yl}carbamoyl)-3-azabicyclo[3.1.0]hexan-3-yl]-3,3-dimethyl-1-oxobutan-2-yl}carbamate]: the EC50 in assay [1] was 27.2 nM. Further, in assay [2], the Ki is 2.15 nM.
In the same order, the values of `Cc1cc(OCC(=O)[C@H](C[C@@H]2CCNC2=O)NC(=O)[C@@H]2[C@@H]3[C@H](CN2C(=O)[C@@H](NC(=O)C(F)(F)F)C(C)C)C3(C)C)no1` [Example 61, (1R,2S,5S)-6,6-dimethyl-N-{(2S)-4-[(5-methyl-1,2-oxazol-3-yl)oxy]-3-oxo-1-[(3S)-2-oxopyrrolidin-3-yl]butan-2-yl}-3-[N-(trifluoroacetyl)-L-valyl]-3-azabicyclo[3.1.0]hexane-2-carboxamide] are 1800 nM and 31.7 nM.
In the same order, the values of `CCc1c(OCC(=O)[C@H](C[C@@H]2CCNC2=O)NC(=O)[C@@H]2[C@@H]3[C@H](CN2C(=O)[C@@H](NC(=O)C(F)(F)F)C(C)C)C3(C)C)noc1C` [Example 67, (1R,2S,5S)-N-{(2S)-4-[(4-ethyl-5-methyl-1,2-oxazol-3-yl)oxy]-3-oxo-1-[(3S)-2-oxopyrrolidin-3-yl]butan-2-yl}-6,6-dimethyl-3-[N-(trifluoroacetyl)-L-valyl]-3-azabicyclo[3.1.0]hexane-2-carboxamide] are 1750 nM and 107 nM.
Consider `CC(C)[C@H](NC(=O)C(F)(F)F)C(=O)N1C[C@H]2[C@@H]([C@H]1C(=O)N[C@@H](C[C@@H]1CC(O)NC1=O)C(=O)COc1ccc(F)cc1F)C2(C)C` (stereo partly drawn) [Example 39, (1R,2S,5S)-N-{(2S)-4-(2,4-difluorophenoxy)-1-[(3R)-5-hydroxy-2-oxopyrrolidin-3-yl]-3-oxobutan-2-yl}-6,6-dimethyl-3-[N-(trifluoroacetyl)-L-valyl]-3-azabicyclo[3.1.0]hexane-2-carboxamide], for which the EC50 in assay [1] came to 306 nM. Further, the Ki in assay [2] was found to be 3.7 nM.
Turning to `Cc1ccc2c(OCC(=O)[C@H](C[C@@H]3CCNC3=O)NC(=O)[C@@H]3[C@@H]4[C@H](CN3C(=O)[C@@H](NC(=O)C(F)(F)F)C(C)C)C4(C)C)noc2c1` [Example 51, (1R,2S,5S)-6,6-dimethyl-N-{(2S)-4-[(6-methyl-1,2-benzoxazol-3-yl)oxy]-3-oxo-1-[(3S)-2-oxopyrrolidin-3-yl]butan-2-yl}-3-[N-(trifluoroacetyl)-L-valyl]-3-azabicyclo[3.1.0]hexane-2-carboxamide], in assay [1], the EC50 was determined as 94.2 nM. Also, the Ki in assay [2] was found to be 10.5 nM.
For the molecule `CC[C@@H]([C@H](NS(=O)(=O)C(F)(F)F)C(=O)N1C[C@H]2[C@@H]([C@H]1C(=O)N[C@@H](C[C@@H]1CCNC1=O)C(=O)COc1ccc(F)cc1F)C2(C)C)C(F)(F)F` [Example 70, (1R,2S,5S)-N-{(2S)-4-(2,4-difluorophenoxy)-3-oxo-1-[(3S)-2-oxopyrrolidin-3-yl]butan-2-yl}-6,6-dimethyl-3-[3′,3′,3′-trifluoro-N-(trifluoromethanesulfonyl)-L-isoleucyl]-3-azabicyclo[3.1.0]hexane-2-carboxamide], the EC50 in assay [1] was determined as 5440 nM. Also, in assay [2], the Ki stood at 203 nM.
As for `CC(C)(C)[C@H](NS(=O)(=O)C(F)(F)F)C(=O)N1C[C@H]2[C@@H]([C@H]1C(=O)N[C@H](C[C@@H]1CCNC1=O)C(=O)COc1ccc(F)cc1F)C2(C)C` [Example 68, (1R,2S,5S)-N-{(2R)-4-(2,4-difluorophenoxy)-3-oxo-1-[(3S)-2-oxopyrrolidin-3-yl]butan-2-yl}-6,6-dimethyl-3-[3-methyl-N-(trifluoromethanesulfonyl)-L-valyl]-3-azabicyclo[3.1.0]hexane-2-carboxamide], the EC50 in assay [1] turned out to be 97 nM. The Ki in assay [2] amounted to 129 nM.
